Like-named read-outs stand apart in the source and are kept apart here.
Tests used:
[1] = tested on: Rat pulmonary epithelial cell cultures (L2); assay: Paraquat-induced injury of L2 cells, LDH release; assay type: cell-based; details: 100 μM; Paraquat 2.5 mM, 48 hours
[2] = molecular target: T1, xanthine oxidase (Bos taurus, UniProt P80457); assay: Inhibition of xanthine oxidase; assay type: biochemical; details: for Ki: pH 10, 25° C., 1 nM xanthine oxidase
T1 construct: purchased Boehringer Mannheim
T1 sequence (P80457 whole entry): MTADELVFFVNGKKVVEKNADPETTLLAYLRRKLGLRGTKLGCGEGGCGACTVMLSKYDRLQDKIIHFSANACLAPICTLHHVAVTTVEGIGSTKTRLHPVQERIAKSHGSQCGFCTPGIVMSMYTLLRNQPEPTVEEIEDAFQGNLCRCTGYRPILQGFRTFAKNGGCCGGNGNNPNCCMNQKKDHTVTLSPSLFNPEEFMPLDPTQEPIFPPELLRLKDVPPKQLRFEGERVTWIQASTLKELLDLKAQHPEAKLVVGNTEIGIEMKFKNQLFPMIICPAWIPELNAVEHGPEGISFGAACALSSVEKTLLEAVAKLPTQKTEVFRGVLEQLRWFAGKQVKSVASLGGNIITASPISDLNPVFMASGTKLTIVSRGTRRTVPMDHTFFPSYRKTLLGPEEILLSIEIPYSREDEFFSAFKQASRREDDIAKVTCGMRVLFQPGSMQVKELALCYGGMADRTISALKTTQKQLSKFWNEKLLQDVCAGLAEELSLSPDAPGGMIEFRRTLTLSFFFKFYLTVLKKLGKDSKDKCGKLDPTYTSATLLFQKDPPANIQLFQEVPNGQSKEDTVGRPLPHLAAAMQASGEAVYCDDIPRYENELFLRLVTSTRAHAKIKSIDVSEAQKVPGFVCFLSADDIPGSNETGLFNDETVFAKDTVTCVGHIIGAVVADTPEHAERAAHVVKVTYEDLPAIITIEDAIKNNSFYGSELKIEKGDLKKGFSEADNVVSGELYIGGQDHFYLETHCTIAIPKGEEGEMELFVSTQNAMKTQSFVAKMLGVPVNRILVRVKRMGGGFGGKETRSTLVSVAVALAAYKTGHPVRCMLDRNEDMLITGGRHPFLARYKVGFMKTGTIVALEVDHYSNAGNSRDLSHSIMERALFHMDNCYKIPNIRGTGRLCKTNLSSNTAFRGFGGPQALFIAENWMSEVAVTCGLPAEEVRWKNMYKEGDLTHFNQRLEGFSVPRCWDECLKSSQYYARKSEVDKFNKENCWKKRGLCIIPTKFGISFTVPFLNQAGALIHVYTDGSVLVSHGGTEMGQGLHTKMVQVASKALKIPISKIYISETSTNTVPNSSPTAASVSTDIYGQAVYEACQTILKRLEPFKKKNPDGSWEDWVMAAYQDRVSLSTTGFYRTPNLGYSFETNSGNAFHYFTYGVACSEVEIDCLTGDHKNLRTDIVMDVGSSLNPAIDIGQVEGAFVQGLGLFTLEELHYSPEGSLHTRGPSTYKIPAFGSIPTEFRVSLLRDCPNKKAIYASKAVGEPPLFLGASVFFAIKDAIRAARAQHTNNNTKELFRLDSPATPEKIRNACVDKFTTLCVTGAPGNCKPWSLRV
Method: In a first study, assays were performed in a 1 ml quartz cuvette containing 50 mM carbonate buffer, pH 10, 0.1 mM EDTA, 1 nM xanthine oxidase (Boehringer Mannheim) at 25° C. Xanthine oxidase activity was measured spectrophotometrically by following the […] over time at 295 nm. Four concentrations of xanthine (25, 50, 250, 500 μM) and 2 concentrations of MnTBAP (5, 10 μM) were used. Two inhibition constants were then derived from the curve's intercepts (Kii=5.5 μM) and slopes (Kis=15 μM).

[3] = tested on: J774 macrophages; assay: Nitrite/nitrate production in J774 macrophages; assay type: cell-based; details: for inhibition of LPS-induced nitrite/nitrate accumulation: LPS 10 μg/ml; for inhibition of nitrite/nitrate accumulation: LPS and IFN
Method: Cell culture: J774 macrophages were cultured in DMEM medium, supplemented with L-glutamine (3.5 mmol/L) and 10% fetal calf serum. Cells were cultured in 96-well plates (200 μl medium/well) until confluence. To induce the inducible isoform of nitric oxide synthase (iNOS), fresh culture medium containing E. coli LPS (011:B4, 10 μg/ml) alone or in combination with murine γ-interferon (γ-IFN, 10 U/ml) was added in the presence or absence of the NOS inhibitor, the SOD mimetic of the combination of the two compounds for 24 h. Moreover, cells were exposed to the NO donor compounds S-nitroso-N-acetyl-DL-penicillamine (SNAP) (3 mM) and diethylamine:NO NONOate (DNO) (3 mM) for 24 h or to authentic peroxynitrite (1 mM) for 1 h). Nitride/nitrate concentration in the medium and mitochondrial respiration were then measured as described below.
Measurement of nitrite/nitrate production: Nitride/nitrate production, an indicator of NO synthesis, was measured in the supernatant. First, nitrate in the culture medium was reduced to nitrite by incubation with nitrate reductase (670 mU/ml) and NADPH (160 μM) at room temperature for 2 h. After 2 h, nitrite concentration in the samples were measured by the Griess reaction, by adding 100 μl of Griess reagent (1% sulfanilamide and 0.1% naphthylethylenediamide in 5% phosphoric acid) to 100 μl samples of conditioned medium. The optical density at 550 nm (OD550) was measured using a Spectramax 250 microplate reader (Molecular Devices, Sunnyvale, Calif.) Nitrate concentrations were calculated by comparison with OD550 of standard solutions of sodium nitrate prepared in culture medium. All measurements were corrected for the interference of MnTBAP at this wavelength.

[4] = tested on: Calf pulmonary endothelial cell (CPA-47) line; assay: Glucose oxidase hydrogen peroxide injury of CPA-47, Cr^51 release; assay type: cell-based; details: glucose oxidase 100 Mu/ml, 4 hours; 1 hour pretreatment
Method: (§1) Calf pulmonary endothelial cell (CPA-47) line was grown to near confluence in 12-well plates with F-12K medium containing 10% fetal calf serum. CPA-47 cells were loaded with Cr^51 as previously described by Simon et al J. Clin. Invest. 78:1375 (1986) in high glucose minimum essential medium (DMEM). Cells were pretreated with MnTBAP (100 μM) for 1 hour and then exposed to various concentrations of hydrogen peroxide generator, glucose oxidase, for 4 hours. Cell injury was then quantitated as the specific Cr^51 release from CPA-47 cells which has been adjusted for spontaneous Cr51 release.
as §1, with “(J.” for “J.”, “(1986))” for “(1986)”, “various concentrations of either: (A) MnTBAP; (B) MnTMPyP; (C) ZnTBAP; or (D) CuZnSOD” for “MnTBAP (100 μM)”, “the” for “various concentrations of”, “oxidase (100 Mu/ml),” for “oxidase,”, “Cr^51” for “Cr51”

[5] = tested on: calf pulmonary artery endothelial cell cultures (CPA-47); assay: Xanthine oxidase/xanthine-induced injury, LDH release; assay type: cell-based; details: 50 μM, 1 hour pre-incubation; XO plus 200 μM xanthine, 24 hours
Method: In a second study, calf pulmonary artery endothelial cell cultures (CPA-47 (Tissue and Cell 10:535 (1978)) were grown to confluence in Ham's F-12K medium with 10% fetal bovine serum at pH 7.4 and 37° C. Cells were then trypsinized and seeded at equal densities in 24 well plates and grown to 90% confluence. Cells were washed and pre-incubated for 1 hour with 50 μM of MnTBAO in minimum essential medium (MEM) or MEM only. Various amounts of xanthine oxidase (XO) plus 200 μM xanthine (X) were added and allowed to incubate for 24 hours. Cell injury was quantitated by measuring the release of cellular lactate dehydrogenase (LDH) into the medium.

[6] = Paraquat-induced lung injury, BALF analysis; assay type: in vivo, Mice; details: 2.5 mg/ml nebulized 30 minutes twice daily for 2 days; paraquat 45 mg/kg ip; 48 hours
Method: Mice were treated with either paraquat (PQ, 45 mg/kg, ip) or saline (10 ml/kg, ip) and exposed to MnTBAP (2.5 mg/ml, nebulized into a 2 L chamber at 2 L/min for 30 minutes twice daily for 2 days) or room air. Mice were killed 48 hours after start of treatment and lung injury was assessed by analysis of bronchoalveolar lavage fluid (BALF). BALF damage markers used were lactate dehydrogenase (LDH, as units/L), proteins concentration (as mg/dl), and percent of polymorphonuclear leukocytes (PMN).

Mn(III) tetrakis (4-benzoic acid)porphyrin [MnTBAP]
paraquat-induced LDH release [1]: decrease paraquat-induced LDH release | manner of inhibition of xanthine oxidase [2]: non-competitive | Ki ([2]; read-out: Kii (inhibition constant from intercepts)): 5.5 µM | Ki ([2]; read-out: Kis (inhibition constant from slopes)): 15 µM | nitrite/nitrate formation in the presence of L-NMA [3]: no additional effect | inhibition of LPS-induced nitrite/nitrate accumulation ([3]; 100 μM): 63% | inhibition of nitrite/nitrate accumulation ([3]; 100 μM): 25% | nitrite/nitrate accumulation in response to DNO ([3]; 300 μM): slight inhibition | nitrite/nitrate accumulation in response to SNAP ([3]; 300 μM): did not inhibit | inhibition of LPS-induced nitrite/nitrate accumulation ([3]; 300 μM): 86% | inhibition of nitrite/nitrate accumulation ([3]; 300 μM): 61% | change of inhibition of nitrite/nitrate accumulation when applied 6 h after LPS ([3]; LPS-stimulated macrophages): more than 50% | hydrogen peroxide-induced endothelial cell injury [4]: reduction | XO/X-induced LDH release [5]: decrease in XO/X-induced LDH release | protection against paraquat-induced lung injury [6]: partial protection

Source: US6583132B1, “Oxidant scavengers” (Duke University, priority 1993, dated 2003)
